The text below walks through data of US20070117770A1, “Human ribosomal DNA (rDNA) and ribosomal RNA (rRNA) nucleic acids and uses thereof” (Cylene Pharmaceuticals, Inc., priority 2005, published 2007).

One assay has as its system nucleolin in A549 cells. Briefly: Cell nucleolin localization (immunofluorescence). Type of assay: cell-based. Conditions: 10 uM, two hours. The protocol: (§1) An assay was conducted to determine the effect of ribosomal nucleic acid interacting compounds on cell nucleolin location. In these studies, A549 cells were plated in borosilicate chamber slides. The cells were treated with 10 uM compound A-1 the next day for two hours, washed with phosphate buffered saline, fixed for 10 minutes in 4% paraformaldehyde, permeabilized for 5 minutes in a 1:1 ethanol:acetone mix, incubated with a 1:100 dilution of an anti-nucleolin monoclonal antibody (catalog no. RDI-NUCLEOLabm; Research Diagnostics, Inc.) in 5% donkey serum, followed by incubation with a 1:100 diluted TRITC-labeled secondary anti-mouse antibody and observed under a fluorescence microscope (e.g., Olympus) in the TRITC channel at 600× magnification. […] Accordingly, nucleolin was redistributed from the nucleolus to the nucleoplasm in cells treated with a compound tested in the assay.

Assay [1] has as its system fibrillarin in A549 cells. Briefly: Cell fibrillarin localization (immunofluorescence). The assay is classed as cell-based. Conditions: protocol as for nucleolin. The method, then:
as §1
Another assay was conducted to determine the effect of ribosomal nucleic acid interacting compounds on cell fibrillarin location. These studies were conducted using a protocol similar to that described in the preceding paragraph, except an antibody that specifically bound to fibrillarin (catalog no. ab5821; Novus Biologicals, Inc.) was utilized.

The target of assay [2] is T1, nucleolin/nucleic acid ligand (Homo sapiens, UniProt P19338).
T1 construct: without the N-terminal acidic stretches domain
T1 sequence (P19338 284-710 limits assumed): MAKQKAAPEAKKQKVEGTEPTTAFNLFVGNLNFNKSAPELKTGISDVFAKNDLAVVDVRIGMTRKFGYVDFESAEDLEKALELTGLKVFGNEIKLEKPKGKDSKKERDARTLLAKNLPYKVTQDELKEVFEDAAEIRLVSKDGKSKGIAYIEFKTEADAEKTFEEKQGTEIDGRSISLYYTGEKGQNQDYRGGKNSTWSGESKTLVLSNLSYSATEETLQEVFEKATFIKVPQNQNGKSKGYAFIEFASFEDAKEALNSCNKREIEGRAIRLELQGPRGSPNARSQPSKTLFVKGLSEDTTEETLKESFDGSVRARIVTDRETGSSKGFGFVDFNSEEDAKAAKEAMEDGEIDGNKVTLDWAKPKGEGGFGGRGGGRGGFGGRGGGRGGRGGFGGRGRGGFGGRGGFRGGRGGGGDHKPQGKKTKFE
Briefly: EMSA, interference with nucleolin/nucleic acid ligand interactions (ligands derived from human ribosomal DNA). Type of assay: binding. The protocol: (§2) The following assays assessed effects of compounds on interactions between nucleolin and nucleic acid ligands capable of forming quadruplex (QP) and hairpin (HP) secondary structures. Nucleic acid ligands tested were a cMyc QP DNA having nucleotide sequence 5′-[…]-3′ (SEQ ID NO: 176) and a HP pre-rRNA region to which nucleolin binds, having the sequence 5′-[…]-3′ (SEQ ID NO: 177). In the assays, recombinant nucleolin (˜250 nM), which was fused to maltose binding protein and had the sequence under accession number NM_005381 without the N-terminal acidic stretches domain, was incubated with each of the two ^32P-labeled nucleic acid ligands (10 or 250 nM). Nucleolin and the nucleic acid ligand were incubated in the presence or absence of a test compound of Formula A-1, B-1, C-6 or C-7 in an incubation buffer (12.5 mM Tris, pH 7.6, 60 mM KCl, 1 mM MgCl2, 0.1 mM EDTA, 1 mM DTT, 5% glycerol, 0.1 mg/ml BSA) for 30 minutes at room temperature. Structures for A-1 and B-1 are shown above and structures for C-6 and C-7 are shown hereafter: [drawing 17] The resulting complexes were separated on a 6% DNA retardation gel using 0.5× TBE with 20 mM KCl as a running buffer (i.e., electrophoresis mobility shift assay (EMSA)).
The assay also was conducted using nucleic acid ligands derived from human ribosomal DNA. Sequences of these nucleic acids are shown in the preceding example. […]

In another assay the target is T2, nucleolin/2957NT (Homo sapiens, UniProt P19338).
T2 construct: without the N-terminal acidic stretches domain
T2 sequence (P19338 284-710 limits assumed): as above
As to the kind of experiment: EMSA, interference with nucleolin/nucleic acid ligand interaction. The assay is classed as binding. Conditions: ligand 2957NT, read-out: IC50, concentration of Compound A-1 required to dissociate half of the complexed nucleic acid ligand and nucleolin protein. The protocol: as §2
(§3) The assay also was conducted using nucleic acid ligands derived from human ribosomal DNA. Sequences of these nucleic acids are shown in the preceding example. […] A “+” represents the weakest nucleolin affinity and least interference by compound A-1 and a “++++” represents the strongest nucleolin affinity and greatest interference by compound A-1.
(§4) The assay also was conducted in a filter-binding format. […] The protein-quadruplex mixtures were incubated for 30 min at ambient temperature and filtered through mixed cellulose ester membrane filters (Millipore) with gentle suction. The filters were washed twice with […] of binding buffer, dried and OptiPhase ‘SuperMix’ scintillation cocktail (Perkin Elmer) was added to the wells. Radioactivity was assayed with MicroBeta scintillation counter (Perkin Elmer). Binding curves were constructed and apparent Kd's and Bmax's for the complexes were calculated using the GraphPad Prizm software program (GraphPad Software). In the following table, the nucleic acid ligand is designated in the first column using the nomenclature described herein; the second column provides the nucleotide sequence of the nucleic acid ligand; the third column is the conformation of the ligand as determined by circular dichroism (M is mixed, P is parallel, A is antiparallel, C is complex, SS is single-stranded and ND is not determined); the fourth column is the dissociation constant determined by the filter binding assay of nucleolin protein and the nucleic acid ligand; the fifth column is a Bmax constant determined by the filter binding assay, which is the percent of active nucleic acid ligand in each assay; and the sixth column presents the concentration of Compound A-1 required to dissociate half of the complexed nucleic acid ligand and nucleolin protein, as determined by the EMSA assay described above.

In the next assay the target is T3, nucleolin/5701NT (Homo sapiens, UniProt P19338).
T3 construct: without the N-terminal acidic stretches domain
T3 sequence (P19338 284-710 limits assumed): as above
Described as above. Type of assay: binding. Conditions: ligand 5701NT, read-out: IC50, concentration of Compound A-1 required to dissociate half of the complexed nucleic acid ligand and nucleolin protein. The protocol:
as §2, §3, §4

The target in the next assay is T4, nucleolin/6374NT (Homo sapiens, UniProt P19338).
T4 construct: without the N-terminal acidic stretches domain
T4 sequence (P19338 284-710 limits assumed): as above
The description is as above. Type of assay: binding. Conditions: ligand 6374NT, read-out: IC50, concentration of Compound A-1 required to dissociate half of the complexed nucleic acid ligand and nucleolin protein. The protocol:
as §2, §3, §4

For the next assay, the target named is T5, nucleolin/6534NT (Homo sapiens, UniProt P19338).
T5 construct: without the N-terminal acidic stretches domain
T5 sequence (P19338 284-710 limits assumed): as above
The assay is described as above. The assay is classed as binding. The settings on record: ligand 6534NT, read-out: IC50, concentration of Compound A-1 required to dissociate half of the complexed nucleic acid ligand and nucleolin protein. The protocol: as §2, §3, §4

Another assay has as its target T6, nucleolin/6960NT (Homo sapiens, UniProt P19338).
T6 construct: without the N-terminal acidic stretches domain
The description is as above. The assay is classed as binding. Conditions: ligand 6960NT, read-out: IC50, concentration of Compound A-1 required to dissociate half of the complexed nucleic acid ligand and nucleolin protein. The protocol: as §2, §3, §4

Another assay concerns the target T7, nucleolin/7253NT (Homo sapiens, UniProt P19338).
T7 construct: without the N-terminal acidic stretches domain
The description is as above. Conditions: ligand 7253NT, read-out: IC50, concentration of Compound A-1 required to dissociate half of the complexed nucleic acid ligand and nucleolin protein. The assay is classed as binding. The protocol:
as §2, §3, §4

The next assay concerns the target T8, nucleolin/8511NT (Homo sapiens, UniProt P19338).
T8 construct: without the N-terminal acidic stretches domain
The description is as above. Conditions: ligand 8511NT, read-out: IC50, concentration of Compound A-1 required to dissociate half of the complexed nucleic acid ligand and nucleolin protein. Type of assay: binding. The protocol:
as §2, §3, §4

The target of another assay is T9, nucleolin/8762NT (Homo sapiens, UniProt P19338).
T9 construct: without the N-terminal acidic stretches domain
T9 sequence (P19338 284-710 limits assumed): as above
The description is as above. The assay is classed as binding. The settings on record: ligand 8762NT, read-out: IC50, concentration of Compound A-1 required to dissociate half of the complexed nucleic acid ligand and nucleolin protein. The protocol:
as §2, §3, §4

Another assay deals with T10, nucleolin/8749NT (Homo sapiens, UniProt P19338).
T10 construct: without the N-terminal acidic stretches domain
T10 sequence (P19338 284-710 limits assumed): as above
The description is as above. Type of assay: binding. More on the design: key to Activity of Compound A-1 (relative interference), ligand 8749NT: +: least interference by compound A-1; ++++: greatest interference by compound A-1. The method, then: as §2, with “The resulting complexes were separated on a 6% DNA retardation gel using 0.5× TBE with 20 mM KCl as a running buffer (i.e., electrophoresis mobility shift assay (EMSA)).” left out
The assay also was conducted in a filter-binding format. […] Radioactivity was assayed with MicroBeta scintillation counter (Perkin Elmer). Binding curves were constructed and apparent Kd's and Bmax's for the complexes were calculated using the GraphPad Prizm software program (GraphPad Software). […]

T6 sequence (P19338 284-710 limits assumed): as above
T7 sequence (P19338 284-710 limits assumed): as above
T8 sequence (P19338 284-710 limits assumed): as above

For the molecule `CN1CCCC1CCNC(=O)c1cn2c3c(c(N4CCC(c5cnccn5)C4)c(F)cc3c1=O)Oc1cc3ccccc3cc1-2` (stereo not shown) [Compound A-1], the “nucleolin localization in treated cells” value in the assay on nucleolin in A549 cells is listed as “nucleolin was redistributed to the nucleoplasm”. For the same molecule, the “fibrillarin localization in treated cells” value in [1] is “caused redistribution of fibrillarin”. For the same molecule, the “interference with nucleolin/nucleic acid ligand interactions” value in assay [2] is “interfered with nucleolin/nucleic acid ligand interactions”. Further, the IC50 came out at 1 µM on nucleolin/2957NT; 3 µM at nucleolin/5701NT; 3 µM on nucleolin/6374NT; 10 µM at nucleolin/6534NT; 3 µM at nucleolin/6960NT; 10 µM at nucleolin/7253NT. Further, the IC50 was found to be 10 µM on nucleolin/8511NT; 10 µM on nucleolin/8762NT; 10 µM on nucleolin/8749NT (ligand 8749NT, read-out: IC50, concentration of Compound A-1 required to dissociate half of the complexed nucleic acid ligand and nucleolin protein). Further, on nucleolin/8749NT, the “Activity of Compound A-1 (relative interference), ligand 8749NT” value is on record as “+”.
